Results published in ChEMBL document CHEMBL1201862, “PubChem BioAssay data set” (2004).
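96-well plates; 48 h exposure; 5 concentrations. Endpoints by linear interpolation between flanking doses. Not reached: highest tested concentration assigned. GI50 is the concentration that inhibits growth by half.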 Activity calls are given as the source filed them. Rule as the data show it: active = GI50 up to about 1.1 µM and inactive = higher.

Assays:
Experiment in all cases: NCI anticancer screen, dose series, 48 h
SK-MEL-5 = test system: SK-MEL-5
LOX IMVI = test system: LOX IMVI
T47D = test system: T47D
MDA-MB-435 = test system: MDA-MB-435
RXF 393 = test system: RXF 393
SF-295 = test system: SF-295
SF-268 = test system: SF-268
KM12 = test system: KM12
DU-145 = test system: DU-145
HOP-62 = test system: HOP-62
MDA-N = test system: MDA-N
BT-549 = test system: BT-549
MCF7 = test system: MCF7
SR = test system: SR
HCT-116 = test system: HCT-116
NCI/ADR-RES = test system: NCI/ADR-RES
SW-620 = test system: SW-620
SK-MEL-28 = test system: SK-MEL-28
UACC-62 = test system: UACC-62
SNB-19 = test system: SNB-19
NCI-H460 = test system: NCI-H460
SN12C = test system: SN12C
A549 = test system: A549
OVCAR-3 = test system: OVCAR-3
SK-OV-3 = test system: SK-OV-3
HCC 2998 = test system: HCC 2998
NCI-H226 = test system: NCI-H226
SNB-75 = test system: SNB-75
HCT-15 = test system: HCT-15
COLO 205 = test system: COLO 205
OVCAR-5 = test system: OVCAR-5
U-251 = test system: U-251
UACC-257 = test system: UACC-257
786-0 = test system: 786-0
EKVX = test system: EKVX
TK-10 = test system: TK-10
NCI-H23 = test system: NCI-H23
OVCAR-4 = test system: OVCAR-4
MDA-MB-231 = test system: MDA-MB-231
CCRF-CEM = test system: CCRF-CEM
PC-3 = test system: PC-3
K562 = test system: K562
HT-29 = test system: HT-29
ACHN = test system: ACHN
UO-31 = test system: UO-31
SK-MEL-2 = test system: SK-MEL-2
CAKI-1 = test system: CAKI-1
IGROV-1 = test system: IGROV-1
SF-539 = test system: SF-539
A498 = test system: A498
MOLT-4 = test system: MOLT-4
M14 = test system: M14
NCI-H522 = test system: NCI-H522
HOP-92 = test system: HOP-92
HL-60 = test system: HL-60
Malme-3M = test system: Malme-3M
OVCAR-8 = test system: OVCAR-8
RPMI-8226 = test system: RPMI-8226
Hs-578T = test system: Hs-578T

Measured: GI50

COC(=O)C1(CCCCl)CCCN1C(=O)OC(C)(C)C (centres undefined)
inactive: SK-MEL-5 > 100 µM | LOX IMVI > 100 µM | T47D > 100 µM | MDA-MB-435 > 100 µM | RXF 393 > 100 µM | SF-295 > 100 µM | SF-268 > 100 µM | KM12 > 100 µM | DU-145 > 100 µM | HOP-62 > 100 µM | MDA-N > 100 µM | BT-549 > 100 µM | MCF7 > 100 µM | SR 10.5 µM | HCT-116 > 100 µM | NCI/ADR-RES > 100 µM | SW-620 > 100 µM | SK-MEL-28 > 100 µM | UACC-62 > 100 µM | SNB-19 > 100 µM | NCI-H460 > 100 µM | SN12C > 100 µM | A549 > 100 µM | OVCAR-3 > 100 µM | SK-OV-3 > 100 µM | HCC 2998 > 100 µM | NCI-H226 75.5 µM | SNB-75 > 100 µM | COLO 205 > 100 µM | OVCAR-5 > 100 µM | U-251 > 100 µM | UACC-257 > 100 µM | 786-0 > 100 µM | EKVX > 100 µM | TK-10 > 100 µM | NCI-H23 > 100 µM | OVCAR-4 > 100 µM | MDA-MB-231 > 100 µM | CCRF-CEM 37.5 µM | PC-3 > 100 µM | K562 36.7 µM | HT-29 > 100 µM | ACHN > 100 µM | UO-31 > 100 µM | SK-MEL-2 > 100 µM | CAKI-1 > 100 µM | IGROV-1 > 100 µM
> 100 µM: HCT-15

C=C(C)[C@@H]1CC[C@@]2(C)[C@H]1[C@H]1CCC3[C@@]4(C)CC[C@H](O)C(C)(C)[C@@H]4CC[C@@]3(C)[C@]1(C)C[C@@H]2O (some centres undefined) [CALENDULADIOL]
inactive: SK-MEL-5 19.1 µM | LOX IMVI 46.2 µM | T47D > 100 µM | MDA-MB-435 23.1 µM | RXF 393 25.9 µM | SF-295 23.7 µM | SF-268 87.1 µM | KM12 39.4 µM | DU-145 74.8 µM | HOP-62 > 100 µM | MDA-N 43 µM | BT-549 > 100 µM | MCF7 22.8 µM | SF-539 67 µM | SR 28.4 µM | HCT-116 43.5 µM | A498 > 100 µM | NCI/ADR-RES 56.9 µM | SW-620 41.9 µM | SK-MEL-28 > 100 µM | MOLT-4 11.2 µM | SNB-19 54.7 µM | NCI-H460 23 µM | SN12C 87.9 µM | A549 11.1 µM | OVCAR-3 52.1 µM | NCI-H226 > 100 µM | SNB-75 27.3 µM | OVCAR-5 63.2 µM | U-251 25.3 µM | M14 > 100 µM | UACC-257 55.2 µM | 786-0 38 µM | EKVX 33.7 µM | TK-10 > 100 µM | NCI-H23 > 100 µM | NCI-H522 17.6 µM | MDA-MB-231 46.6 µM | HOP-92 92.3 µM | CCRF-CEM 19.2 µM | HL-60 19.5 µM | Malme-3M 33 µM | OVCAR-8 41.3 µM | PC-3 39.4 µM | K562 6.61 µM | HT-29 24.4 µM | ACHN 21.9 µM | CAKI-1 48.4 µM | IGROV-1 60.3 µM
18.5 µM: HCT-15

CC(=O)OCC(OC(C)=O)C1C[C@H]2O[C@@H]3[C@H](C[C@H]2O1)O[C@@]1(C[C@@H]3C)C[C@H](C)[C@@H]2O[C@]3(C[C@@H]2O1)C[C@H]1O[C@H]2[C@H](C)[C@H]4OC(=O)C[C@H]5CC[C@@H]6OC7[C@H]8O[C@]9(CC[C@H]%10CC(=O)[C@H](CC[C@H]%11C[C@@H](C)C(=O)C(C[C@@H]4O[C@H]2C[C@H]1O3)O%11)O%10)CC8O[C@@H]7[C@@H](O9)[C@H]6O5 (some centres undefined)
active: SK-MEL-5 0.000458 µM | LOX IMVI 0.00486 µM | MDA-MB-435 0.000195 µM | RXF 393 0.00283 µM | SF-295 0.00242 µM | SF-268 0.00509 µM | KM12 0.00183 µM | DU-145 0.00423 µM | HOP-62 0.00505 µM | MDA-N 0.000321 µM | BT-549 0.000553 µM | MCF7 0.00151 µM | SR 0.000233 µM | HCT-116 0.00234 µM | A498 > 0.434 µM | NCI/ADR-RES 0.102 µM | SW-620 0.00438 µM | SK-MEL-28 0.011 µM | UACC-62 0.00248 µM | MOLT-4 0.0184 µM | SNB-19 0.0101 µM | NCI-H460 0.00315 µM | SN12C 0.0142 µM | RPMI-8226 0.00229 µM | A549 0.00501 µM | OVCAR-3 0.00319 µM | SK-OV-3 0.00728 µM | HCC 2998 0.003 µM | NCI-H226 0.00703 µM | SNB-75 0.00265 µM | COLO 205 0.00281 µM | U-251 0.00506 µM | M14 0.00619 µM | 786-0 0.00308 µM | EKVX 0.0201 µM | NCI-H23 0.00267 µM | Hs-578T 0.00179 µM | NCI-H522 0.00051 µM | MDA-MB-231 0.0199 µM | HOP-92 0.0611 µM | CCRF-CEM 0.00436 µM | HL-60 0.000489 µM | OVCAR-8 0.00964 µM | PC-3 0.00337 µM | K562 0.00123 µM | ACHN 0.0627 µM | UO-31 0.0388 µM | SK-MEL-2 0.0481 µM | CAKI-1 0.00515 µM | IGROV-1 0.00322 µM
0.00635 µM: HCT-15
